Reference: patent publication US20150105252A1, “SUBSTITUTED PYRAZOLES AS HERBICIDES” (E I DU PONT DE NEMOURS AND COMPANY, priority 2013, published 2015)

Key:
crabgrass, large = experiment: Test E preemergence; format: in vivo, Digitaria sanguinalis; conditions: 21 days, scale 0 to 100
Source text: (§1) Seeds of plant species selected from bermudagrass (Cynodon dactylon), Surinam grass (Brachiaria decumbens), crabgrass, large (large crabgrass, Digitaria sanguinalis), crabgrass, naked (naked crabgrass, Digitaria nuda), foxtail, green (green foxtail, Setaria viridis), johnsongrass (Sorghum halepense), kochia (Kochia scoparia), morningglory (pitted morningglory, Ipomoea lacunosa), nutsedge, purple (purple nutsedge, Cyperus rotundus), ragweed (common ragweed, Ambrosia elation), mustard, black (black mustard, Brassica nigra), guineagrass (Panicum maximum), dallisgrass (Paspalum dilatatum), barnyardgrass (Echinochloa crus-galli), sandbur (southern sandbur, Cenchrus echinatus), sowthistle (common sowthistle, Sonchus oleraceous), ryegrass, Italian (Italian ryegrass, Lolium multiflorum), signalgrass (broadleaf signalgrass, Brachiaria platyphylla), dayflower, VA (Virginia (VA) dayflower, Commelina virginica), bluegrass (annual bluegrass, Poa annua), quackgrass (Elytrigia repens), mallow (common mallow, Malva sylvestris), buckwheat, wild (wild buckwheat, Polygonum convolvulus), leafy spurge (Euphorbia esula), common chickweed (Stellaria media), wild poinsettia (Euphorbia heterophylla), pigweed, palmer (palmer pigweed, Amaranthus palmeri), and pigweed (redroot pigweed, Amaranthus retroflexus) were planted into a blend of loam soil and sand and treated preemergence with test chemicals formulated in a non-phytotoxic solvent mixture which included a surfactant.
(§2) Treated plants and controls were maintained in a greenhouse for 21 days, after which time all species were compared to controls and visually evaluated. Plant response ratings, summarized in Table E, are based on a scale of 0 to 100 where 0 is no effect and 100 is complete control. A dash (-) response means no test result.

morningglory = experiment: Test E preemergence; format: in vivo, Ipomoea lacunosa; conditions: 21 days, scale 0 to 100
Source text: as §1, §2

mustard, black = experiment: Test E preemergence; format: in vivo, Brassica nigra; conditions: 21 days, scale 0 to 100
Source text: as §1, §2

buckwheat, wild = experiment: Test E preemergence; format: in vivo, Polygonum convolvulus; conditions: 21 days, scale 0 to 100
Source text: as §1, §2

crabgrass, Brazil = experiment: Test F postemergence; format: in vivo, Digitaria horizontalis; conditions: scale 0 to 100
Source text: Seeds of plant species selected from corn (Zea mays), soybean (Glycine max), velvetleaf (Abutilon theophrasti), lambsquarters (Chenopodium album), wild poinsettia (Euphorbia heterophylla), pigweed, palmer (palmer pigweed, Amaranthus palmeri), common waterhemp (Amaranthus rudis), surinam grass (Brachiaria decumbens), large crabgrass (Digitaria sanguinalis), crabgrass, Brazil (Brazilian crabgrass, Digitaria horizontalis), fall panicum (Panicum dichotomiflorum), giant foxtail (Setaria faberii), green foxtail (Setaria viridis), goosegrass (Eleusine indica), johnsongrass (Sorghum halepense), common ragweed (Ambrosia elation), barnyardgrass (Echinochloa crus-galli), southern sandbur (Cenchrus echinatus), arrowleaf sida (Sida rhombifolia), Italian ryegrass (Lolium multiflorum), dayflower, VA (Virginia (VA) dayflower, Commelina virginica), field bindweed (Convolvulus arvensis), cocklebur (common cocklebur, Xanthium strumarium), morningglory (Ipomoea coccinea), nightshade (eastern black nightshade, Solanum ptycanthum), kochia (Kochia scoparia), yellow nutsedge (Cyperus esculentus), and hairy beggarticks (Bidens pilosa), were planted into a silt loam soil and treated preemergence with test chemicals formulated in a non-phytotoxic solvent mixture which included a surfactant.
At the same time, plants from these crop and weed species and also horseweed (Canada horseweed, Conyza canadensis), smartweed (ladysthumb smartweed, Polygonum persicaria), waterhemp_RES1, (ALS & Triazine resistant common waterhemp, Amaranthus rudis), and waterhemp_RES2, (ALS & HPPD resistant common waterhemp, Amaranthus rudis) were treated with postemergence applications of test chemicals formulated in the same manner. Plants ranged in height from 2 to 18 cm for postemergence treatments (1- to 4-leaf stage). Treated plants and controls were maintained in a greenhouse for 14 to 21 days, after which time all species were compared to controls and visually evaluated. Plant response ratings, summarized in Table F, are based on a scale of 0 to 100 where 0 is no effect and 100 is complete control. A dash (-) response means no test result.

common ragweed = experiment: Test A postemergence; format: in vivo, Ambrosia elation
How it was run: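 Injury readout: eye-scored versus untreated controls, 0 to 100. Exposure period: ~10 days, greenhouse. Application: soil-directed spray over sown seed (pre) or spray on seedlings 2–10 cm tall with one or two leaves (post), compound carried in non-phytotoxic solvent including surfactant.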

[1] = Postemergence, 500 g ai/ha, 0 to 100 scale (0 no effect, 100 complete control)
[2] = postemergence, 125 g ai/ha, about 10 days, visual rating on 0 to 100 scale (0 no effect, 100 complete control)

SMILES: CCCc1cc(C(=O)NCC(F)(F)F)nn1Cc1ccnc(C(F)(F)F)c1 [Compound 105]
- Plant response rating, Crabgrass, Large (crabgrass, large; 16 g ai/ha): 98
- Plant response rating, Crabgrass, Large (crabgrass, large; 31 g ai/ha): 100
- Plant response rating, Crabgrass, Large (crabgrass, large; 62 g ai/ha): 100
- Plant response rating, Crabgrass, Large (crabgrass, large; 125 g ai/ha): 100
- Plant response rating, Crabgrass, Large (crabgrass, large; 250 g ai/ha): 100
- Plant response rating, Morningglory (morningglory; 16 g ai/ha): 100
- Plant response rating, Morningglory (morningglory; 31 g ai/ha): 100
- Plant response rating, Morningglory (morningglory; 62 g ai/ha): 100
- Plant response rating, Morningglory (morningglory; 125 g ai/ha): 100
- Plant response rating, Morningglory (morningglory; 250 g ai/ha): 100
- Plant response rating, Mustard, Black (mustard, black; 16 g ai/ha): 100
- Plant response rating, Mustard, Black (mustard, black; 31 g ai/ha): 100
- Plant response rating, Mustard, Black (mustard, black; 62 g ai/ha): 100
- Plant response rating, Mustard, Black (mustard, black; 125 g ai/ha): 100
- Plant response rating, Mustard, Black (mustard, black; 250 g ai/ha): 100
- Plant response rating, Buckwheat, Wild (buckwheat, wild; 16 g ai/ha): 100
- Plant response rating, Buckwheat, Wild (buckwheat, wild; 31 g ai/ha): 100
- Plant response rating, Buckwheat, Wild (buckwheat, wild; 62 g ai/ha): 100
- Plant response rating, Buckwheat, Wild (buckwheat, wild; 125 g ai/ha): 100
- Plant response rating, Buckwheat, Wild (buckwheat, wild; 250 g ai/ha): 100
- Plant response rating, Crabgrass, Brazil (crabgrass, Brazil; Postemergence, 31 g ai/ha): 30
- Plant response rating, Crabgrass, Brazil (crabgrass, Brazil; Postemergence, 125 g ai/ha): 50
- Plant response rating, Crabgrass, Brazil (crabgrass, Brazil; Postemergence, 250 g ai/ha): 70
- Plant response rating, Crabgrass, Brazil (crabgrass, Brazil; postemergence, 62 g ai/ha): 35
- Plant response rating, Crabgrass, Brazil (crabgrass, Brazil; postemergence, 500 g ai/ha): 90

SMILES: CCONC(=O)c1cc(CC)n(Cc2cc(C(F)(F)F)no2)n1 [Compound 125]
- Common Ragweed plant response rating (common ragweed; [1]): 60
- Common Ragweed plant response rating (common ragweed; [2]): 20

SMILES: CCOc1cc(C(=O)NC2CC2)nn1Cc1ccnc(OC(F)F)c1 [Compound 133]
- Common Ragweed plant response rating (common ragweed; [1]): 100
- Common Ragweed plant response rating (common ragweed; [2]): 60

SMILES: CCc1cc(C(=O)NCC(F)(F)F)nn1Cc1cc(OC(F)F)nn1C [Compound 206]
- Common Ragweed plant response rating (common ragweed; [1]): 30
- Common Ragweed plant response rating (common ragweed; [2]): 0
